One series addresses T1, HGF/MET system (Homo sapiens, UniProt P08581+P14210).
T1 construct: HEK293 cells were prepared by passage into 6-well multi-plates; endogenous in cells; host or cells: HEK293
The series is described as follows: Phospho-MET ELISA. The arrangement: key: − indicates that the compound failed to significantly augment MET phosphorylation; + indicates maximum potency at or above 100 nM; ++ indicates maximum potency at or above 10 nM; +++ indicates maximum potency at or above 1 nM; ++++ indicates maximum potency at or above 0.1 nM. To be noted: HEK293 cells, 1 ng/mL recombinant HGF, 15 minutes, pMET ELISA. Type of series: cell-based. Here is the method: Compounds were screened for potency towards the HGF/MET system using phospho-MET (pMET) ELISA kits (Cell Signaling). pMET levels were detected in samples having low (1 ng/mL) and high (10 ng/mL) concentrations of HGF.
HEK293 cells were prepared by passage into 6-well multi-plates and grown at 37° C. at 5% CO2 in DMEM+10% FBS until approximately 90% confluent. Cells were then starved for at least 8 hours in serum-free growth media.
Exemplary compounds were prepared in DMEM+0.1% FBS, diluted and added to treatment media with 1 ng/mL recombinant HGF protein (R&D Systems). Cells were incubated in triplicate at 37° C. and 5% CO2 for 15 minutes. Samples were then treated with 180 μL ice-cold RIPA (radioimmunoprecipitation assay) buffer and cells were lysed on ice for 15 minutes. Lysates were cleared by centrifugation at 16,000-g for 15 minutes and the supernatant was retained. Samples were normalized using a BCA assay of lysates to determine protein concentrations across the samples.
Between 50 and 100 μg total protein lysate was loaded into ELISA wells in pMET Sandwich ELISA kit (Cell Signaling Catalog #7227C), ensuring equal protein load in each well. The ELISA was processed according to manufacturer's instructions. After color developed, absorbance was read on an optical plate reader at 450 nm.
Potency measurements were determined using peak efficacy by scaling test compound dose treatments along a scale of 1-10 between 1 ng/mL and 10 ng/mL HGF doses according to the following formula: […]
where y is the normalized data-point, x is the raw data point, A is the mean HGF at 1 ng/mL, and B is the mean HGF at 10 ng/mL.

The test system of the next series is MDCK cells. Put plainly: Cell scattering behavior assay. Type of series: cell-based. Details: key: − indicates that the compound failed to significantly promote cell scattering behavior; + indicates maximum potency at or above 100 nM; ++ indicates maximum potency at or above 10 nM; +++ indicates maximum potency at or above 1 nM; ++++ indicates maximum potency at or above 0.1 nM. To be noted: 5 ng/mL HGF, 24 hours, normalized particle count vs HGF alone. The method, then: MDCK cells were grown under normal conditions and observed to spontaneously form tight colonies as they proliferate. MDCK cells respond to HGF treatment by moving away from each other (scattering), which is quantified to assess the amount of HGF/MET activation in the cell population. In this experiment, MDCK cells were plated in a 96-well format, treated with HGF and exemplary compounds, fluorescently stained, imaged in large fields, and scattering behavior was quantified. Quantification was determined by analyzing the number of continuous groups of cells compared to the total stained area imaged (normalized particle counts).
MDCK cells were plated at low density in black-walled imaging plates and allowed to attach overnight at 37° C. and 5% CO2 in DMEM+10% FBS. Cells were then starved to 2 hours in DMEM without FBS (“starve media”). Samples containing exemplary compounds were prepared in DMEM without FBS and included 5 ng/mL HGF protein (“treatment media”). A control curve was also prepared for each plate using HGF concentrations of 0, 5, 10, and 20 ng/mL. Starve media was replaced with treatment media and cells were incubated for 24 hours at 37° C. and 5% CO2.
After incubation, cells were fixed by replacing treatment media with cold ethanol and incubating for 20 minutes at 4° C. Cells were then rehydrated by washing with PBS and then with stain solution (fluorescent wheat germ agglutinin; WGA488 at 20 μg/mL in PBS). Cells were incubated with stain solution 30 minutes at room temperature after which stain solution was replaced with fresh PBS.
Fields of cells were imaged using an iCyte high content imager in the green wavelength. Images were converted to binary and analyzed for particle size and particle count. For the purpose of analysis, an individual cell touching no other cells or separated colonies of cells were identified as particles, and particle counts were normalized by the total signal area to account for differences in cell number. […] Compound potency was assessed by statistical increase in normalized particle count compared to HGF treatment alone.

Series [1] is described as follows: Turbidimetric solubility assay. Type of series: physicochemical. To be noted: aqueous buffer, kinetic from dmso stock, PBS, 37° C., absorbance 620 nm. The method, then:
Aqueous solubility is a critical drug property that helps to predict bioavailability. Generally, compounds with aqueous solubility <100 μg/ml are poor drugs.
To assess a compound's solubility by turbidity, test compounds were first dissolved in organic solvent (DMSO) at a concentration of 10 mM. This compound solution was then diluted in aqueous solvent (PBS) in a dilution series from […] in a 96-well assay plate. Solutions were incubated at 37° C. for 2 hours.
In wells with test compounds over their solubility limit, the compound will precipitate, effectively blocking the passage of light and thus increasing the absorbance signal of UV light at a wavelength of 620 nm. Compounds were considered insoluble at a tested concentration if turbidity raises the absorbance more than 10% above control reads.

This is an account of results in patent US20240025903A1, “Bicyclic Compounds and Uses Thereof for the Treatment of Diseases” (Athira Pharma, Inc., priority 2020, published 2024).

By solubility is commonly meant the dissolved amount per volume that the medium holds.

Structures are written as SMILES.

T1 sequence (P08581 308-1390 limits assumed): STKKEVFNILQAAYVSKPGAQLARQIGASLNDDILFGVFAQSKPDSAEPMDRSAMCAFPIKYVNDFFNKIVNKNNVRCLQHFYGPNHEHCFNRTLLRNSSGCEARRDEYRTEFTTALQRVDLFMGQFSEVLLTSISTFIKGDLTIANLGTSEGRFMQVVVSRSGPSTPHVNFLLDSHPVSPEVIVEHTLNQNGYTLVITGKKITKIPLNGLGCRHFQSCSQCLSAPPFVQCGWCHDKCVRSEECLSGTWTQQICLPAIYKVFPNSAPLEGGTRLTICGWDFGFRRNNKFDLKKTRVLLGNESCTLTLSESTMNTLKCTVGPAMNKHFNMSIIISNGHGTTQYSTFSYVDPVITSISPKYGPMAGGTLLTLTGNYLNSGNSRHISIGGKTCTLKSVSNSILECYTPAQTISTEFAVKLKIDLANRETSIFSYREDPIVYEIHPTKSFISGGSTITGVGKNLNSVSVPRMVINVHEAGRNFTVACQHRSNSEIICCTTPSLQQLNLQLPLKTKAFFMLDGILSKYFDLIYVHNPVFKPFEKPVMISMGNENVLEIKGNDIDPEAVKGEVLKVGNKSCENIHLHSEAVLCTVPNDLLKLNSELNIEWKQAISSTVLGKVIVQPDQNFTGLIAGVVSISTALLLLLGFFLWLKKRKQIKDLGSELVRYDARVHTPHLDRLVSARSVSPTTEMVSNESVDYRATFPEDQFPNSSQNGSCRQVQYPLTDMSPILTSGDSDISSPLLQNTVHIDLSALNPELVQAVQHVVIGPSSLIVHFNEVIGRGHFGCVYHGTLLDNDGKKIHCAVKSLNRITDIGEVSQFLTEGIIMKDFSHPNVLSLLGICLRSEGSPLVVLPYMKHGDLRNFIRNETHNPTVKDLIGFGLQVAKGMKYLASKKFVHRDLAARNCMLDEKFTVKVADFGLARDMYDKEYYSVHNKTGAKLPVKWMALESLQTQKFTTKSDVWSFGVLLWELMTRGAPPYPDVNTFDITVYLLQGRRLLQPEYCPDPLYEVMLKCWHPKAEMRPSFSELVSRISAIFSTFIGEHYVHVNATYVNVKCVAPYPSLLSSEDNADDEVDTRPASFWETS
T1 sequence (P14210 32-494 limits assumed): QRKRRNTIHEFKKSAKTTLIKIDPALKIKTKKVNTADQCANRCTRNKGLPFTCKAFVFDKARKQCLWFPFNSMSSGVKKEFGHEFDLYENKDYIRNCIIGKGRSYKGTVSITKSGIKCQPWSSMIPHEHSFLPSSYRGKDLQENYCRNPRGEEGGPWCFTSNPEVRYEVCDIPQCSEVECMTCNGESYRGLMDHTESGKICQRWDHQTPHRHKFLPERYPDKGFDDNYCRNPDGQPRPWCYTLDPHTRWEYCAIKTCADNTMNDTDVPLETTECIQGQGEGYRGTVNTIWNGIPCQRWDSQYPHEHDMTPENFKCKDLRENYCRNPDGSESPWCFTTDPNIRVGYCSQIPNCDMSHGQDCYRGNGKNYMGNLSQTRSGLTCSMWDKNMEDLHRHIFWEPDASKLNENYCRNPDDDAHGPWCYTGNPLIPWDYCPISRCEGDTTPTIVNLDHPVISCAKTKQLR

`CCC(C)CN1CC2N(C(=O)c3ccc(Cl)cc3)CCC(=O)N2C(C)C1=O` (centres unmarked) [Compound 10, 1-(4-chlorobenzoyl)-6-methyl-8-(2-methylbutyl)hexahydro-4H-pyrazino[1,2-a]pyrimidine-4,7(6H)-dione]: the “Potency (augmentation of MET phosphorylation)” value at HGF/MET system was “−”. Also, the “Potency (cell scattering)” value in the series on MDCK cells was “−”. In addition, the solubility at 2 h in series [1] is above 300 µM.
Turning to `CC1C(=O)N(CC2CCCC2)CC2N(C(=O)c3ccc(OC(F)F)cc3)CCC(=O)N12` (centres unmarked) [Compound 13], the “Potency (augmentation of MET phosphorylation)” value on HGF/MET system was “−”. Further, the “Potency (cell scattering)” value with MDCK cells is reported as “−”. Also, the solubility at 2 h in series [1] is above 300 µM.
In the case of `CC1C(=O)N(CC2CCCC2)CC2N(C(=O)c3ccc(C(F)(F)F)cc3)CCC(=O)N12` (centres unmarked) [Compound 15], the “Potency (augmentation of MET phosphorylation)” value at HGF/MET system is recorded as “−”. The “Potency (cell scattering)” value with MDCK cells is on record as “−”. This compound also showed a solubility at 2 h in series [1] above 300 µM.
With `CC1C(=O)N(CC2CCC2)CC2N(C(=O)c3ccc(C(F)(F)F)cc3)CCC(=O)N12` (centres unmarked) [Compound 16], the “Potency (augmentation of MET phosphorylation)” value on HGF/MET system is on record as “−”. Also, the “Potency (cell scattering)” value with MDCK cells is “−”. Besides, the solubility at 2 h in series [1] was above 300 µM.
With `C=CCCN1CC2N(C(=O)c3ccc(OC(F)F)cc3)CCC(=O)N2C(C)C1=O` (centres unmarked) [Compound 18], the “Potency (augmentation of MET phosphorylation)” value at HGF/MET system is given as “−”. For the same compound, the “Potency (cell scattering)” value in the series with MDCK cells is reported as “−”. The compound further gave a solubility at 2 h in series [1] above 300 µM.
With `CCCCN1CC2N(C(=O)c3ccc(C(F)(F)F)cc3)CCC(=O)N2C(C)C1=O` (centres unmarked) [Compound 21], on HGF/MET system, the “Potency (augmentation of MET phosphorylation)” value is on record as “−”. Also, in the series on MDCK cells, the “Potency (cell scattering)” value is listed as “−”. In series [1], the solubility at 2 h is above 300 µM.
`CC(C)CN1CC2N(C(=O)c3ccc(C(F)(F)F)cc3)CCC(=O)N2C(C)C1=O` (centres unmarked) [Compound 23]: at HGF/MET system, the “Potency (augmentation of MET phosphorylation)” value is “−”. The “Potency (cell scattering)” value in the series on MDCK cells is “−”. This compound also gave a solubility at 2 h in series [1] above 300 µM.
Regarding `CC(C)N1CC2N(C(=O)c3ccc(C(F)(F)F)cc3)CCC(=O)N2C(C)C1=O` (centres unmarked) [Compound 24], the “Potency (augmentation of MET phosphorylation)” value at HGF/MET system is “−”. The “Potency (cell scattering)” value in the series with MDCK cells is recorded as “−”. Besides, the solubility at 2 h in series [1] is above 300 µM.
In the case of `CC1C(=O)N(CCc2ccco2)CC2N(C(=O)c3ccc(OC(F)F)cc3)CCC(=O)N12` (centres unmarked) [Compound 25], at HGF/MET system, the “Potency (augmentation of MET phosphorylation)” value is reported as “−”. In addition, the “Potency (cell scattering)” value in the series on MDCK cells is recorded as “−”. For the same compound, in series [1], the solubility at 2 h was above 300 µM.
`CC1C(=O)N(CCc2cccs2)CC2N(C(=O)c3ccc(OC(F)F)cc3)CCC(=O)N12` (centres unmarked) [Compound 26]: the “Potency (augmentation of MET phosphorylation)” value at HGF/MET system was “−”. Further, the “Potency (cell scattering)” value in the series with MDCK cells is on record as “−”. Moreover, the solubility at 2 h in series [1] is above 300 µM.
With `CC1C(=O)N(CC2CCCO2)CC2N(C(=O)c3ccc(OC(F)F)cc3)CCC(=O)N12` (centres unmarked) [Compound 27], the “Potency (augmentation of MET phosphorylation)” value on HGF/MET system is recorded as “−”. Also, the solubility at 2 h in series [1] is above 100 µM.
For `CC1C(=O)N(CCc2ccccc2)CC2N(C(=O)c3ccc(OC(F)F)cc3)CCC(=O)N12` (centres unmarked) [Compound 28], on HGF/MET system, the “Potency (augmentation of MET phosphorylation)” value is “−”. The “Potency (cell scattering)” value in the series on MDCK cells is “−”. The same compound returned a solubility at 2 h in series [1] above 100 µM.
For the compound `CC1C(=O)N(CCc2ccncc2)CC2N(C(=O)c3ccc(OC(F)F)cc3)CCC(=O)N12` (centres unmarked) [Compound 29], at HGF/MET system, the “Potency (augmentation of MET phosphorylation)” value is given as “−”. The compound also gave a solubility at 2 h in series [1] above 300 µM.
For the compound `CC1C(=O)N(CCC2CC2)CC2N(C(=O)c3ccc(OC(F)F)cc3)CCC(=O)N12` (centres unmarked) [Compound 31], the “Potency (augmentation of MET phosphorylation)” value at HGF/MET system is “−”. The “Potency (cell scattering)” value in the series on MDCK cells is “−”. Besides, the solubility at 2 h in series [1] is above 300 µM.
On to `COCCN1CC2N(C(=O)c3ccc(OC(F)F)cc3)CCC(=O)N2C(C)C1=O` (centres unmarked) [Compound 32], for which, on HGF/MET system, the “Potency (augmentation of MET phosphorylation)” value was “−”. In addition, in the series on MDCK cells, the “Potency (cell scattering)” value is “−”. The solubility at 2 h in series [1] was above 300 µM.
Take `COCCCN1CC2N(C(=O)c3ccc(OC(F)F)cc3)CCC(=O)N2C(C)C1=O` (centres unmarked) [Compound 33]: on HGF/MET system, the “Potency (augmentation of MET phosphorylation)” value is recorded as “−”. Also, the “Potency (cell scattering)” value in the series on MDCK cells was “−”. In addition, the solubility at 2 h in series [1] was above 300 µM.
Take `CC1C(=O)N(CCO)CC2N(C(=O)c3ccc(OC(F)F)cc3)CCC(=O)N12` (centres unmarked) [Compound 34, 1-(4-(difluoromethoxy)benzoyl)-8-(2-hydroxyethyl)-6-methylhexahydro-4H-pyrazino[1,2-a]pyrimidine-4,7(6H)-dione]: at HGF/MET system, the “Potency (augmentation of MET phosphorylation)” value was “−”. Moreover, in the series with MDCK cells, the “Potency (cell scattering)” value is “−”. Further, in series [1], the solubility at 2 h was above 300 µM.
On to `CC1C(=O)N(CCN)CC2N(C(=O)c3ccc(OC(F)F)cc3)CCC(=O)N12` (centres unmarked) [Compound 35, 8-(2-aminoethyl)-1-(4-(difluoromethoxy)benzoyl)-6-methylhexahydro-4H-pyrazino[1,2-a]pyrimidine-4,7(6H)-dione], for which the “Potency (augmentation of MET phosphorylation)” value at HGF/MET system is “−”. In addition, in the series on MDCK cells, the “Potency (cell scattering)” value is “−”. The compound further yielded a solubility at 2 h in series [1] above 300 µM.
For the compound `CC1C(=O)N(CCS(C)(=O)=O)CC2N(C(=O)c3ccc(OC(F)F)cc3)CCC(=O)N12` (centres unmarked) [Compound 36], at HGF/MET system, the “Potency (augmentation of MET phosphorylation)” value was “−”. Also, the “Potency (cell scattering)” value in the series on MDCK cells was “−”. In addition, the solubility at 2 h in series [1] was above 300 µM.
For `CC1C(=O)N(CCC2CCCC2)CC2N(Cc3ccc(OC(F)F)cc3)CCC(=O)N12` (centres unmarked) [Compound 38], the “Potency (augmentation of MET phosphorylation)” value on HGF/MET system is listed as “−”. Besides, the solubility at 2 h in series [1] is above 100 µM.
In the same order, the values of `CC1C(=O)N(CCC2CCC2)CC2N(Cc3ccc(OC(F)F)cc3)CCC(=O)N12` (centres unmarked) [Compound 40] are “−” and above 300 µM.
In the same order, the values of `CC1C(=O)N(CCC2CCC2)CC2N(Cc3ccc(F)cc3)CCC(=O)N12` (centres unmarked) [Compound 45, 8-(2-cyclobutylethyl)-1-(4-fluorobenzyl)-6-methylhexahydro-4H-pyrazino[1,2-a]pyrimidine-4,7(6H)-dione] are “−” and above 300 µM.
In the same order, the values of `CCC(C)CN1CC2N(Cc3ccc(OC(F)F)cc3)CCC(=O)N2C(CF)C1=O` (centres unmarked) [Compound 47, 1-(4-(difluoromethoxy)benzyl)-6-(fluoromethyl)-8-(2-methylbutyl)hexahydro-4H-pyrazino[1,2-a]pyrimidine-4,7(6H)-dione] are “−” and above 300 µM.
Regarding `CCC(C)CN1CC2N(Cc3ccc(C(F)(F)F)cc3)CCC(=O)N2C(CF)C1=O` (centres unmarked) [Compound 48, 6-(fluoromethyl)-8-(2-methylbutyl)-1-(4-(trifluoromethyl)benzyl)hexahydro-4H-pyrazino[1,2-a]pyrimidine-4,7(6H)-dione], at HGF/MET system, the “Potency (augmentation of MET phosphorylation)” value was “−”. Further, in series [1], the solubility at 2 h is above 100 µM.
